Laboratory results taken from article PMC8151276, “An Integrated Approach toward NanoBRET Tracers for Analysis of GPCR Ligand Engagement” (Molecules, 2021).

Experiments:
BDKRB2 = target: T1, BDKRB2 (Homo sapiens, UniProt P30411); test: NanoBRET screen HiBiT-BDKRB2 in HEK293; format: binding; details: BDKRB2
T1 construct: purchased Promega (in-house HiBiT-GPCR construct library, NanoBRET)
T1 sequence (P30411 1-391): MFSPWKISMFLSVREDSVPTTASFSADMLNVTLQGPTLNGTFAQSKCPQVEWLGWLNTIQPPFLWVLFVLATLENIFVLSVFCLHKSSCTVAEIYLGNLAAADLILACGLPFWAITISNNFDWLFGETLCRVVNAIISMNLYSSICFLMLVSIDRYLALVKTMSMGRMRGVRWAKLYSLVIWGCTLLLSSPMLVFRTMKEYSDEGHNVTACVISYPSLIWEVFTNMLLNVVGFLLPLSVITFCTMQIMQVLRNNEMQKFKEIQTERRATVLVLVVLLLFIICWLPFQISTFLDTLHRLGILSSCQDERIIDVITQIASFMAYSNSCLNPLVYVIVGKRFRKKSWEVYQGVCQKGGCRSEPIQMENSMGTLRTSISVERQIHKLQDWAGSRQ
Experimental: (§1) Each tracer candidate was screened across the entire library of HiBiT-GPCR constructs using NanoBRET as the detection modality. As depicted in Figure 4A, the specificity of interactions was evaluated through decrease in BRET due to competitive displacement of a bound tracer by excess parental compound. Each tracer was analyzed for binding to each HiBiT-GPCR fusion in the absence and in the presence of competing parental compound. Briefly, HEK293 cells were transfected with HiBiT-GPCR constructs diluted into promoterless DNA to reduce expression and maximize translocation to the cell surface. Each tracer candidate was then screened at concentrations of 1 μM and 0.1 μM across cells expressing these fusions. Cells were treated for 1.5 h with tracer either alone or in the presence of 20 μM competing parental compound (i.e., control). BRET was measured upon addition of purified LgBiT and subsequent complementation with HiBiT genetically fused to a GPCR. The specificity of interactions was assessed through a decrease in BRET signal due to competitive displacement of the bound tracer. To further gauge the robustness of these interactions, the fold response over the control (i.e., BRETtracer/BRETcontrol) was calculated. We chose a 1.5-fold response, which translates to ≥7-fold signal over noise as the minimal threshold required to score an interaction as positive. […]. Below we highlight the screening results obtained for our exemplary fluorescent tracers based on Clozapine, Amitriptyline and AZD1283.
(§2) HiBiT-GPCR DNA constructs were diluted in 10 mM Tris pH 8 to a final concentration of 0.01 μg/μL, arrayed in 96-well plates and stored at −20 °C. For transfection, HEK293 cells were suspended in Opti-MEM (without phenol red) supplemented with 2% fetal bovine serum (Seradigm) and 100 units/mL penicillin–streptomycin (Gibco) at a final concentration of 220,000 cells/mL and dispensed into white 96-well plates at 90 μL/well. Subsequent transfections and screens were carried using an Agilent Bravo Automated Liquid Handling Platform. First, the 96-well HiBiT DNA arrays were diluted 25-fold in Opti-MEM (without serum or phenol red) to a final concentration of 0.0004 μg/μL and 20 μL of the diluted DNAs were transferred into new 96-well plates. Next, promoterless carrier DNA (1 μg/μL) was diluted 25-fold (0.04 μg/μL) and then dispensed into the diluted arrays at 20 μL/well. Following brief mixing, Viafect transfection reagent (Promega) diluted 16-fold into Opti-MEM was dispensed into the plates at 40 μL/well. After mixing by pipetting, plates were incubated for 10 min on the pipetting station deck. The DNA-transfection reagent complexes were then added to plates containing cells. To facilitate the screen, 10 μL of DNA-transfection reagent complexes were added in duplicates to the top 4 and bottom 4 rows, resulting in two identical 48-well arrays per plate. Plates with transfected cells were incubated for 18–20 h at 37 °C/5% CO2. A screen of each tracer across the entire library using two different concentrations requires duplicate plates of transfected cells. Depending on the number of tracers being screened, transfections can be scaled up using the same ratios. The next day, for each tracer, four 20× screening solutions in tracer dilution buffer (Promega) were prepared: two duplicates at final concentration of 20 μM and two duplicates at a final concentration of 2 μM. A competing unmodified compound was added to one of each duplicate at a final concentration of 400 μM. The four resulting solutions were diluted 4-fold in Opti-MEM without serum or phenol red to generate 5× solutions (5 µM and 0.5 µM tracer +/− 100 μM competing compound). To screen the library, a BioTek MultiFlo FX liquid dispenser was used to dispense 22.5 µL of tracer solution to the top 4 rows and 22.5 µL tracer + competing compound solution to the 4 bottom rows. Plates were briefly mixed on an orbital shaker and incubated for 1.5 h at room temperature. […]

GALR2 = target: T2, GALR2 (Homo sapiens, UniProt O43603); test: NanoBRET screen HiBiT-GALR2 in HEK293; format: binding; details: GALR2
T2 construct: purchased Promega (in-house HiBiT-GPCR construct library, NanoBRET)
T2 sequence (O43603 1-387): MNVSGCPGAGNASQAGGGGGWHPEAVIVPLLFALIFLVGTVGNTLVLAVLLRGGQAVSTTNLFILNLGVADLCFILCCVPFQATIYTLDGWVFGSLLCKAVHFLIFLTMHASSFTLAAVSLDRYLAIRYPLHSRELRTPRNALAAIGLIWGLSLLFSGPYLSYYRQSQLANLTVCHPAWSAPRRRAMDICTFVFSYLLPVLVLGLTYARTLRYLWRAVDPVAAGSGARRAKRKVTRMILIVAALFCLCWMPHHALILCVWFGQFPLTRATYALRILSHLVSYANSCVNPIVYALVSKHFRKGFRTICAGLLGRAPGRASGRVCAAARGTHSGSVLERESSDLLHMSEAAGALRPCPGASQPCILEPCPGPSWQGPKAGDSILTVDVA
Experimental: as §1, §2

Row | SMILES | NanoBRET Fold Response (BDKRB2; tracer 0.1μM) | NanoBRET Fold Response (BDKRB2; tracer 1μM) | NanoBRET Fold Response (GALR2; tracer 0.1μM) | NanoBRET Fold Response (GALR2; tracer 1μM) | other results
1 | CN1CCN(C2=Nc3cc(Cl)ccc3N(CC(=O)NCCOCCOCCOCCOCCNC(=O)CCc3ccc4n3[B-](F)(F)[N+]3=C(c5ccc[nH]5)C=CC3=C4)c3ccccc32)CC1 [Clozapine-c-2-NB590] |  |  |  |  | NanoBRET Fold Response (BDKRB2; 0.1μM tracer): 1.00; NanoBRET Fold Response (BDKRB2; 1μM tracer): 1.03; NanoBRET Fold Response (GALR2; 0.1μM tracer): 1.00; NanoBRET Fold Response (GALR2; 1μM tracer): 1.05
2 | O=C(CCOCCOCCOCCOCCNC(=O)CCc1ccc2n1[B-](F)(F)[N+]1=C(c3ccc[nH]3)C=CC1=C2)NCCCN1CCN(C2=Nc3ccccc3Oc3ccc(Cl)cc32)CC1 [Loxapine-a-2-NB590] | 1.08 | 1.16 | 1.09 | 1.12 | 
3 | COc1ccccc1N1CCN(CCCCN2C(=O)c3ccc(CNC(=O)CCOCCOCCOCCOCCNC(=O)CCc4ccc5n4[B-](F)(F)[N+]4=C(c6ccc[nH]6)C=CC4=C5)cc3C2=O)CC1 [NAN-190-2-NB590] | 1.08 | 0.98 | 1.00 | 0.99 | 
4 | COc1ccccc1N1CCN(CCCCN2C(=O)c3ccc(CNC(=O)CCOCCNC(=O)c4ccc(CNC(=O)CCc5ccc6n5[B-](F)(F)[N+]5=C(c7ccc[nH]7)C=CC5=C6)cc4)cc3C2=O)CC1 [NAN-190-3-NB590] | 0.97 | 0.88 | 1.03 | 1.00 | 
5 | O=C(CCc1ccc2n1[B-](F)(F)[N+]1=C(c3ccc[nH]3)C=CC1=C2)NCc1ccc(C(=O)NCCOCCC(=O)N[C@@H]2CC[C@@]3(O)[C@H]4Cc5ccc(O)c6c5[C@@]3(CCN4CC3CC3)[C@H]2O6)cc1 [Naltrexone-3-NB590] | 1.07 | 0.94 | 1.00 | 0.98 | 
6 | Cc1cc2c(s1)Nc1ccccc1N=C2N1CCN(CCCNC(=O)CCOCCOCCOCCOCCNC(=O)CCc2ccc3n2[B-](F)(F)[N+]2=C(c4ccc[nH]4)C=CC2=C3)CC1 [Olanzapine-a-2-NB590] | 0.97 | 1.06 | 0.96 | 1.07 | 
7 | O=C(CCc1ccc2n1[B-](F)(F)[N+]1=C(c3ccc[nH]3)C=CC1=C2)NCc1ccc(C(=O)NCCOCCOCCNCC(O)COc2cccc3ccccc23)cc1 (stereo not drawn) [Propranolol-3-NB590] |  |  |  |  | NanoBRET Fold Response (BDKRB2; 0.1μM): 1.04; NanoBRET Fold Response (BDKRB2; 1μM): 1.07; NanoBRET Fold Response (GALR2; 0.1μM): 1.00; NanoBRET Fold Response (GALR2; 1μM): 0.99
8 | O=C(CCc1ccc2n1[B-](F)(F)[N+]1=C(c3ccc[nH]3)C=CC1=C2)NCCOCCOCCNC(=O)OCCOCCN1CCN(C2=Nc3ccccc3Sc3ccccc32)CC1 [Quetiapine-a-2-NB590] | 1.11 | 0.81 | 1.01 | 0.83 | 
9 | Cc1nc2n(c(=O)c1CCN1CCC(c3noc4cc(F)ccc34)CC1)CCCC2OC(=O)NCCOCCOCCOCCOCCNC(=O)CCc1ccc2n1[B-](F)(F)[N+]1=C(c3ccc[nH]3)C=CC1=C2 (stereo not drawn) [Risperidone-2-NB590] | 0.92 | 0.96 | 1.03 | 0.97 | 
